Counter-ions that a name gives are not always drawn. Like-named read-outs stand apart in the source and are kept apart here.
What was measured:
Assay type in all cases: biochemical
recombinant PRL-1 = target: T1, recombinant PRL-1 (Homo sapiens, UniProt Q93096); experiment: In vitro phosphatase assay (DiFMUP hydrolysis), PRL-1; further: test concentration or dose not given here
T1 construct: 6xHis (N, cleaved yes); made in house; host or cells: E. coli One Shot BL21 Star
T1 sequence (Q93096 1-173): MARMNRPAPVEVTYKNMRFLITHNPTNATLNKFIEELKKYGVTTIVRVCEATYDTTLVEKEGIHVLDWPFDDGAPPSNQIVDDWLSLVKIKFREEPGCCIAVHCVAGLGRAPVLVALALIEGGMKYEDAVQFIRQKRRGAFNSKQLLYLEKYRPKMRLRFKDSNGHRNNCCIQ

recombinant PRL-3 = target: T2, recombinant PRL-3 (Homo sapiens, UniProt O75365); experiment: In vitro phosphatase assay (DiFMUP hydrolysis), PRL-3; further: test concentration or dose not given here
T2 construct: 6xHis (N, cleaved yes); made in house; host or cells: E. coli One Shot BL21 Star

recombinant PRL-2 = target: T3, recombinant PRL-2 (Homo sapiens, UniProt Q12974); experiment: In vitro phosphatase assay (DiFMUP hydrolysis), PRL-2;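 further: PRL-2 activity read as DiFMUP hydrolysis after 20 min at room temperature with drug, enzyme first pre-reduced at 4 °C for 20 min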
T3 construct: 6xHis (N, cleaved yes); made in house; host or cells: E. coli One Shot BL21 Star
T3 sequence (Q12974 1-167): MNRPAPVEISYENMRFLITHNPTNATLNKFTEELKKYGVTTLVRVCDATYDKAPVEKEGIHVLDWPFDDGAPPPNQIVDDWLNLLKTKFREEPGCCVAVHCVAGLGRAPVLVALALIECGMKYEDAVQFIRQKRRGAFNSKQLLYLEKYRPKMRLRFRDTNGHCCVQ

[1] = FDA-approved drug screen, compared to DMSO
[2] = FDA-approved drug screen, activity compared to DMSO

T2 sequence (O75365 whole entry): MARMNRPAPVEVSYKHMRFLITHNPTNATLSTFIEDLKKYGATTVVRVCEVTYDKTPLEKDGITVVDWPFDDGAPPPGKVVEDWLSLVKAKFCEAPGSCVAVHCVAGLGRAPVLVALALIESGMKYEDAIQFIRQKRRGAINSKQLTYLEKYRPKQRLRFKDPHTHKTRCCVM

Row | SMILES | % Phosphatase Activity (compared to DMSO) PRL-1 (recombinant PRL-1; [1]) [%] | % Phosphatase Activity (compared to DMSO) PRL-3 (recombinant PRL-3; [1]) [%] | % Phosphatase Activity (compared to DMSO) PRL-2 (recombinant PRL-2; [1]) [%] | further results
1 | COc1ccc(C[C@@H](C)NC[C@H](O)c2ccc(O)c(NC=O)c2)cc1.COc1ccc(C[C@@H](C)NC[C@H](O)c2ccc(O)c(NC=O)c2)cc1.O=C(O)/C=C/C(=O)O [Formoterol Hemifumarate] | 95 | 91 | 106 | 
2 | CC1CNc2c(cccc2S(=O)(=O)N[C@@H](CCCNC(=N)N)C(=O)N2CC[C@@H](C)C[C@@H]2C(=O)O)C1 (stereo partly drawn) [Argatroban] | 104 | 80 | 100 | 
3 | CCCC(CCC)C(=O)[O-].[Na+] |  |  |  | % Phosphatase Activity (compared to DMSO) PRL-1 (recombinant PRL-1; [2]): 86%; % Phosphatase Activity (compared to DMSO) PRL-3 (recombinant PRL-3; [2]): 77%; % Phosphatase Activity (compared to DMSO) PRL-2 (recombinant PRL-2; [2]): 75%
4 | Cc1cnc(C(=O)O)c[n+]1[O-] [Acipimox] | 97 | 95 | 102 | 
5 | Nc1nc(=O)c2c([nH]1)NC[C@H](CNc1ccc(C(=O)N[C@@H](CCC(=O)[O-])C(=O)[O-])cc1)N2C=O.[Ca+2] [Calcium Levofolinate] | 96 | 105 | 101 | 
6 | C[C@H](CCC(=O)O)[C@H]1CC[C@H]2[C@@H]3[C@H](O)C[C@@H]4C[C@H](O)CC[C@]4(C)[C@H]3CC[C@]12C [Chenodeoxycholic Acid] | 87 | 115 | 102 | 
7 | Cc1cn([C@@H]2C[C@@H](O)[C@H](CO)O2)c(=O)[nH]c1=O [Telbivudine] |  |  |  | % Phosphatase Activity (compared to DMSO) PRL-1 (recombinant PRL-1; [2]): 106%; % Phosphatase Activity (compared to DMSO) PRL-3 (recombinant PRL-3; [2]): 80%; % Phosphatase Activity (compared to DMSO) PRL-2 (recombinant PRL-2; [2]): 89%
8 | CCn1cc(C(=O)O)c(=O)c2cc(F)c(N3CCNCC3)cc21 [Norfloxacin] | 131 | 111 | 130 | 
9 | CCCN(CCC)CCc1cccc2c1CC(=O)N2 [Ropinirole HCl] | 103 | 78 | 122 | 
10 | CN1C(C(=O)Nc2ccccn2)=C(O)c2sccc2S1(=O)=O [Tenoxicam] |  |  |  | % Phosphatase Activity (compared to DMSO) PRL-1 (recombinant PRL-1; [2]): 92%; % Phosphatase Activity (compared to DMSO) PRL-3 (recombinant PRL-3; [2]): 71%; % Phosphatase Activity (compared to DMSO) PRL-2 (recombinant PRL-2; [2]): 75%
11 | C#C[C@]1(O)CC[C@H]2[C@@H]3CCC4=CC(=O)CC[C@@H]4[C@H]3CC[C@@]21CC [Levonorgestrel] | 94 | 78 | 101 | 
12 | O=C1C(O)=C([C@H]2CC[C@H](c3ccc(Cl)cc3)CC2)C(=O)c2ccccc21 [Atovaquone] | 96 | 90 | 88 | 
13 | COc1cc(O)c(C(=O)c2ccccc2)cc1S(=O)(=O)O [Sulisobenzone] |  |  |  | % Phosphatase Activity (compared to DMSO) PRL-1 (recombinant PRL-1; [2]): 91%; % Phosphatase Activity (compared to DMSO) PRL-3 (recombinant PRL-3; [2]): 81%; % Phosphatase Activity (compared to DMSO) PRL-2 (recombinant PRL-2; [2]): 95%
14 | C[C@H]1COc2c(N3CCN(C)CC3)c(F)cc3c(=O)c(C(=O)O)cn1c23 [Levofloxacin] | 264 | 238 | 314 | 
15 | COc1cccc2c1C(=O)c1c(O)c3c(c(O)c1C2=O)C[C@@](O)(C(=O)CO)C[C@@H]3O[C@H]1C[C@H](N)[C@H](O)[C@H](C)O1 [Doxorubicin (Adriamycin)] | 75 | 73 | 74 | 
16 | Cc1[nH]c(=O)c(C#N)cc1-c1ccncc1 [Milrinone] | 98 | 83 | 110 | 
17 | CN(C)C(=O)Oc1ccc[n+](C)c1 [Pyridostigmine Bromide] | 106 | 77 | 109 | 
18 | COC(=O)Nc1nc2cc(C(=O)c3ccc(F)cc3)ccc2[nH]1 [Flubendazole] | 91 | 92 | 103 | 
19 | O=c1n(CCCN2CCN(c3cccc(Cl)c3)CC2)nc2ccccn12 [Trazodone HCl] |  |  |  | % Phosphatase Activity (compared to DMSO) PRL-1 (recombinant PRL-1; [2]): 146%; % Phosphatase Activity (compared to DMSO) PRL-3 (recombinant PRL-3; [2]): 93%; % Phosphatase Activity (compared to DMSO) PRL-2 (recombinant PRL-2; [2]): 142%
20 | Cc1cn([C@H]2O[C@@H](CO)[C@H](O)[C@H]2F)c(=O)[nH]c1=O [Clevudine] | 103 | 89 | 117 | 

Row | SMILES | % Phosphatase Activity (compared to DMSO) PRL-1 (recombinant PRL-1; [1]) [%] | % Phosphatase Activity (compared to DMSO) PRL-3 (recombinant PRL-3; [1]) [%] | % Phosphatase Activity (compared to DMSO) PRL-2 (recombinant PRL-2; [1]) [%] | further results
21 | CC(C)n1c(/C=C/C(O)CC(O)CC(=O)O)c(-c2ccc(F)cc2)c2ccccc21 (stereo not drawn) [Fluvastatin Sodium] | 81 | 89 | 95 | 
22 | CC(C)(C)c1nc(-c2cccc(NS(=O)(=O)c3c(F)cccc3F)c2F)c(-c2ccnc(N)n2)s1 [Dabrafenib (GSK2118436)] | 81 | 86 | 82 | 
23 | CC(C)COc1ccc(CNC(=O)N(Cc2ccc(F)cc2)C2CCN(C)CC2)cc1 [Pimavanserin] | 95 | 95 | 88 | 
24 | O=c1ccn([C@@H]2O[C@H](CO)[C@@H](O)[C@H]2O)c(=O)[nH]1 [Uridine] |  |  |  | % Phosphatase Activity (compared to DMSO) PRL-1 (recombinant PRL-1; [2]): 86%; % Phosphatase Activity (compared to DMSO) PRL-3 (recombinant PRL-3; [2]): 94%; % Phosphatase Activity (compared to DMSO) PRL-2 (recombinant PRL-2; [2]): 97%
25 | CCCc1nn(C)c2c(=O)[nH]c(-c3cc(S(=O)(=O)N4CCN(C)CC4)ccc3OCC)nc12.CS(=O)(=O)O [Sildenafil Mesylate] |  |  |  | % Phosphatase Activity (compared to DMSO) PRL-1 (recombinant PRL-1; [2]): 94%; % Phosphatase Activity (compared to DMSO) PRL-3 (recombinant PRL-3; [2]): 94%; % Phosphatase Activity (compared to DMSO) PRL-2 (recombinant PRL-2; [2]): 79%
26 | C[C@H]1O[C@@H](n2cc(F)c(=O)[nH]c2=O)[C@H](O)[C@@H]1O [Doxifluridine] | 91 | 98 | 103 | 
27 | COc1cc(C(=O)O)ccc1NC(=O)[C@@H]1N[C@@H](CC(C)(C)C)[C@](C#N)(c2ccc(Cl)cc2F)[C@H]1c1cccc(Cl)c1F [Idasanutlin (RG-7388)] | 7 | 2 | 15 | 
28 | COc1cc(C)c(/C=C/C(C)=C/C=C/C(C)=C/C(=O)O)c(C)c1C [Acitretin] | 83 | 62 | 87 | 
29 | CC(C)CN(C[C@@H](O)[C@H](Cc1ccccc1)NC(=O)O[C@H]1CCOC1)S(=O)(=O)c1ccc(N)cc1 [Amprenavir] | 96 | 77 | 81 | 
30 | CC(S)C(=O)NCC(=O)O (stereo not drawn) [Tiopronin] |  |  |  | % Phosphatase Activity (compared to DMSO) PRL-1 (recombinant PRL-1; [2]): 90%; % Phosphatase Activity (compared to DMSO) PRL-3 (recombinant PRL-3; [2]): 98%; % Phosphatase Activity (compared to DMSO) PRL-2 (recombinant PRL-2; [2]): 119%
31 | CCCCCCNC(=O)n1cc(F)c(=O)[nH]c1=O [Carmofur] | 89 | 73 | 95 | 
32 | COc1c(N2CCNC(C)C2)c(F)cc2c(=O)c(C(=O)O)cn(C3CC3)c12 (stereo not drawn) [Gatifloxacin] | 146 | 122 | 187 | 
33 | C[C@]12CC[C@@H]3c4ccc(O)cc4C[C@@H](CCCCCCCCC[S+]([O-])CCCC(F)(F)C(F)(F)F)[C@H]3[C@@H]1CC[C@@H]2O (stereo partly drawn) [Fulvestrant] | 99 | 82 | 91 | 
34 | Clc1cccc(Cl)c1N=C1NCCN1 [Clonidine HCl] |  |  |  | % Phosphatase Activity (compared to DMSO) PRL-1 (recombinant PRL-1): 118%; % Phosphatase Activity (compared to DMSO) PRL-3 (recombinant PRL-3): 85%; % Phosphatase Activity (compared to DMSO) PRL-2 (recombinant PRL-2): 115%
35 | CC(CCc1ccccc1)NCC(O)c1ccc(O)c(C(N)=O)c1 (stereo not drawn) [Labetalol HCl] | 156 | 110 | 154 | 
36 | COc1cc2c(cc1Cc1cccc(Cl)c1F)c(=O)c(C(=O)O)cn2[C@H](CO)C(C)C [Elvitegravir (GS-9137, JTK-303)] | 82 | 81 | 84 | 
37 | CC(C)(C#N)c1cc(Cn2cncn2)cc(C(C)(C)C#N)c1 [Anastrozole] | 106 | 96 | 122 | 
38 | CCOC(=O)CC(=O)N1CCSC1COc1ccccc1OC (stereo not drawn) [Moguisteine] | 104 | 87 | 98 | 
39 | Oc1ncnc2[nH]ncc12 [Allopurinol] | 104 | 77 | 97 | 
